Reference: US9725445B2, “Cycloalkyl nitrile pyrazolo pyridones as Janus kinase inhibitors” (Merck Sharp & Dohme Corp., priority 2013, dated 2017)

Columns and labels:
JAK2 = JAK2 (Homo sapiens (Human), UniProt O60674); experiment: Jak biochemical HTRF assay, JAK2; settings: HTRF biochemical assay, recombinant GST-tagged catalytic domain; read-out: JAK2 IC50
JAK1 = JAK1 (Homo sapiens (Human), UniProt P23458); experiment: Jak biochemical HTRF assay, JAK1; settings: HTRF biochemical assay, recombinant GST-tagged catalytic domain; read-out: JAK1 IC50
Sequence of JAK1 (P23458 875-1153): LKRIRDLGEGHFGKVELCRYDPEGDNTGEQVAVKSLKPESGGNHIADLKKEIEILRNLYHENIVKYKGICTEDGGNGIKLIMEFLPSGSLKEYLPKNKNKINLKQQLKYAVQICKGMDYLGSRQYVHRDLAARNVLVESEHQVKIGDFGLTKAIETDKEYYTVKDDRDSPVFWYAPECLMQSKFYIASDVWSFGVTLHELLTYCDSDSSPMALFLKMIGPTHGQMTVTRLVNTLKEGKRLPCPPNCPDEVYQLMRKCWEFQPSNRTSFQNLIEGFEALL

Sequence of JAK2 (O60674 849-1124): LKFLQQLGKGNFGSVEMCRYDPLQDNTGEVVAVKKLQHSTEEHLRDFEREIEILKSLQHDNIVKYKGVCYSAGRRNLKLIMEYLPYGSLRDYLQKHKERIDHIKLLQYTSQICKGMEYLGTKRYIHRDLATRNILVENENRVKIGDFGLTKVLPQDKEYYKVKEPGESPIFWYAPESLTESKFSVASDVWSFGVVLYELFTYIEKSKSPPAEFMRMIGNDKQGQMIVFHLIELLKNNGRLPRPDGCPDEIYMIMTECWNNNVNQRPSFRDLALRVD

CN(C)Cc1cccc(Nc2nn([C@H]3CCCC[C@@H]3C#N)c3cc[nH]c(=O)c23)c1 [Example 3-34, (1S,2S)-2-[3-({3-[(dimethylamino)methyl]phenyl}amino)-4-oxo-4,5-dihydro-1H-pyrazolo[4,3-c]pyridin-1-yl]cyclohexanecarbonitrile]
IC50 (JAK2): 1.1 nM | IC50 (JAK1): 1.1 nM

N#C[C@H]1CCCC[C@@H]1n1nc(Nc2ccc3c(c2)CN(CC(F)(F)F)C3=O)c2c(=O)[nH]ccc21 [Example 3-10, (1S,2S)-2-(4-oxo-3-{[1-oxo-2-(2,2,2-trifluoroethyl)-2,3-dihydro-1H-isoindol-5-yl]amino}-4,5-dihydro-1H-pyrazolo[4,3-c]pyridin-1-yl)cyclohexanecarbonitrile]
IC50 (JAK2): 0.43 nM | IC50 (JAK1): 0.12 nM

CC(C)(C)OC(=O)NCc1cc(Nc2nn([C@H]3CCCC[C@@H]3C#N)c3cc[nH]c(=O)c23)ccc1F [Example 3-35, tert-butyl [5-({1-[(1S,2S)-2-cyanocyclohexyl]-4-oxo-4,5-dihydro-1H-pyrazolo[4,3-c]pyridin-3-yl}amino)-2-fluorobenzyl]carbamate]
IC50 (JAK2): 4.7 nM | IC50 (JAK1): 3.2 nM

N#C[C@@H]1CCCC[C@H]1n1nc(Nc2ccc(CS(=O)(=O)N3CCCC3)cc2)c2c(=O)[nH]ccc21 [Example 3-3, (1R,2R)-2-(4-oxo-3-((4-((pyrrolidin-1-ylsulfonyl)methyl)phenyl)amino)-4,5-dihydro-1H-pyrazolo[4,3-c]pyridin-1-yl)cyclohexanecarbonitrile]
IC50 (JAK2): 21 nM | IC50 (JAK1): 6.1 nM

C[C@H](NCC(F)(F)F)c1ccc(Nc2nn([C@H]3CCCC[C@@H]3C#N)c3cc[nH]c(=O)c23)cc1 [Example 3-73, (1S,2S)-2-{4-oxo-3-[(4-{(1S)-1-[(2,2,2-trifluoroethyl)amino]ethyl}phenyl)amino]-4,5-dihydro-1H-pyrazolo[4,3-c]pyridin-1-yl}cyclohexanecarbonitrile]
IC50 (JAK2): 0.45 nM | IC50 (JAK1): 0.26 nM

CN(C)S(=O)(=O)c1ccc(Nc2nn([C@H]3CCCC[C@@H]3C#N)c3cc[nH]c(=O)c23)cc1 [Example 3-6, 4-({1-[(1S,2S)-2-cyanocyclohexyl]-4-oxo-4,5-dihydro-1H-pyrazolo[4,3-c]pyridin-3-yl}amino)-N,N-dimethylbenzenesulfonamide]
IC50 (JAK2): 0.33 nM | IC50 (JAK1): 0.11 nM

N#C[C@H]1CCCC[C@@H]1n1nc(Nc2ccc(-c3ncon3)cc2)c2c(=O)[nH]ccc21 [Example 15-3, (1S,2S)-2-(3-{[4-(1,2,4-oxadiazol-3-yl)phenyl]amino}-4-oxo-4,5-dihydro-1H-pyrazolo[4,3-c]pyridin-1-yl)cyclohexanecarbonitrile]
IC50 (JAK2): 3.6 nM | IC50 (JAK1): 0.51 nM

N#C[C@H]1CCC[C@@H]1n1nc(Nc2ccnc(F)c2)c2c(=O)[nH]ccc21 [Example 3-92, (1S,2S)-2-{3-[(2-fluoropyridin-4-yl)amino]-4-oxo-4,5-dihydro-1H-pyrazolo[4,3-c]pyridin-1-yl}cyclopentanecarbonitrile]
IC50 (JAK2): 5.7 nM | IC50 (JAK1): 0.64 nM

N#C[C@H]1CCCC[C@@H]1n1nc(Nc2ccc(CNCC(F)(F)F)cc2)c2c(=O)[nH]ccc21 [Example 3-57, (1S,2S)-2-{4-oxo-3-[(4-{[(2,2,2-trifluoroethyl)amino]methyl}phenyl)amino]-4,5-dihydro-1H-pyrazolo[4,3-c]pyridin-1-yl}cyclohexanecarbonitrile]
IC50 (JAK2): 0.53 nM | IC50 (JAK1): 0.2 nM

N#Cc1ccc(Nc2nn([C@H]3CCC[C@@H]3C#N)c3cc[nH]c(=O)c23)cc1 [Example 3-112, 4-({1-[(1S,2S)-2-cyanocyclopentyl]-4-oxo-4,5-dihydro-1H-pyrazolo[4,3-c]pyridin-3-yl}amino)benzonitrile]
IC50 (JAK2): 1.2 nM | IC50 (JAK1): 0.25 nM

CN(C)[C@@H]1CC[C@H](n2nc(Nc3ccc(OC(F)(F)F)cc3)c3c(=O)[nH]ccc32)[C@@H](C#N)C1 [Example 5-25, (1S,2S,5R)-5-(dimethylamino)-2-(4-oxo-3-((4-(trifluoromethoxy)phenyl)amino)-4,5-dihydro-1H-pyrazolo[4,3-c]pyridin-1-yl)cyclohexanecarbonitrile]
IC50 (JAK2): 22 nM | IC50 (JAK1): 0.96 nM

CC(=O)NCc1cc(Nc2nn([C@H]3CCCC[C@@H]3C#N)c3cc[nH]c(=O)c23)ccc1S(=O)(=O)N(C)C [Example 3-40, N-[5-({1-[(1S,2S)-2-cyanocyclohexyl]-4-oxo-4,5-dihydro-1H-pyrazolo[4,3-c]pyridin-3-yl}amino)-2-(dimethylsulfamoyl)benzyl]acetamide]
IC50 (JAK2): 0.79 nM | IC50 (JAK1): 0.1 nM

CC1(N2Cc3cc(Nc4nn([C@H]5CCCC[C@@H]5C#N)c5cc[nH]c(=O)c45)ccc3C2=O)CCOCC1 [Example 15-63, (1S,2S)-2-(3-{[2-(4-methyltetrahydro-2H-pyran-4-yl)-1-oxo-2,3-dihydro-1H-isoindol-5-yl]amino}-4-oxo-4,5-dihydro-1H-pyrazolo[4,3-c]pyridin-1-yl)cyclohexanecarbonitrile]
IC50 (JAK2): 0.14 nM | IC50 (JAK1): 0.062 nM

CN1Cc2cc(Nc3nn([C@H]4CCC[C@@H]4C#N)c4cc[nH]c(=O)c34)ccc2S1(=O)=O [Example 3-102, (1S,2S)-2-{3-[(2-methyl-1,1-dioxido-2,3-dihydro-1,2-benzisothiazol-5-yl)amino]-4-oxo-4,5-dihydro-1H-pyrazolo[4,3-c]pyridin-1-yl}cyclopentanecarbonitrile]
IC50 (JAK2): 0.66 nM | IC50 (JAK1): 0.051 nM

CC(C)S(=O)(=O)c1ccc(Nc2nn([C@H]3CCC[C@@H]3C#N)c3cc[nH]c(=O)c23)cc1 [Example 3-105, (1S,2S)-2-[3-({4-[(1-methylethyl)sulfonyl]phenyl}amino)-4-oxo-4,5-dihydro-1H-pyrazolo[4,3-c]pyridin-1-yl]cyclopentanecarbonitrile]
IC50 (JAK2): 0.4 nM | IC50 (JAK1): 0.11 nM

N#C[C@H]1CCCC[C@@H]1n1nc(Nc2ccc(S(=O)(=O)N3CCOCC3)cc2)c2c(=O)[nH]ccc21 [Example 3-24, (1S,2S)-2-(3-{[4-(morpholin-4-ylsulfonyl)phenyl]amino}-4-oxo-4,5-dihydro-1H-pyrazolo[4,3-c]pyridin-1-yl)cyclohexanecarbonitrile]
IC50 (JAK2): 0.47 nM | IC50 (JAK1): 0.15 nM

Cn1ccc(NC(=O)Cc2cccc(Nc3nn([C@@H]4CCCC[C@H]4C#N)c4cc[nH]c(=O)c34)c2)n1 [Example 3-15, 2-[3-({1-[(1R,2R)-2-cyanocyclohexyl]-4-oxo-4,5-dihydro-1H-pyrazolo[4,3-c]pyridin-3-yl}amino)phenyl]-N-(1-methyl-1H-pyrazol-3-yl)acetamide]
IC50 (JAK2): 30 nM | IC50 (JAK1): 14 nM

N#C[C@H]1CCCC[C@@H]1n1nc(Nc2ccc3c(c2)CN(CC(F)(F)F)C3)c2c(=O)[nH]ccc21 [Example 3-61, (1S,2S)-2-(4-oxo-3-{[2-(2,2,2-trifluoroethyl)-2,3-dihydro-1H-isoindol-5-yl]amino}-4,5-dihydro-1H-pyrazolo[4,3-c]pyridin-1-yl}cyclohexanecarbonitrile]
IC50 (JAK2): 1.1 nM | IC50 (JAK1): 0.55 nM

N#C[C@H]1CCCC[C@@H]1n1nc(Nc2ccc(C(O)C(F)(F)F)cc2)c2c(=O)[nH]ccc21 (single isomer, unassigned) [Example 3-9, (1S,2S)-2-[4-oxo-3-({4-[(1S or 1R)-2,2,2-trifluoro-1-hydroxyethyl]phenyl}amino)-4,5-dihydro-1H-pyrazolo[4,3-c]pyridin-1-yl]cyclohexanecarbonitrile]
IC50 (JAK2): 0.54 nM | IC50 (JAK1): 0.081 nM

C[C@H](N[C@@H]1CC[C@H](n2nc(Nc3ccc(OC(F)(F)F)cc3)c3c(=O)[nH]ccc32)[C@@H](C#N)C1)C1CC1 [Example 5-27, (1S,2S,5R)-5-(((S)-1-cyclopropylethyl)amino)-2-(4-oxo-3-((4-(trifluoromethoxy)phenyl)amino)-4,5-dihydro-1H-pyrazolo[4,3-c]pyridin-1-yl)cyclohexanecarbonitrile]
IC50 (JAK2): 233 nM | IC50 (JAK1): 3.7 nM

CN1Cc2ccc(Nc3nn([C@H]4CCCC[C@@H]4C#N)c4cc[nH]c(=O)c34)cc2C1 [Example 3-64, (1S,2S)-2-{3-[(2-methyl-2,3-dihydro-1H-isoindol-5-yl)amino]-4-oxo-4,5-dihydro-1H-pyrazolo[4,3-c]pyridin-1-yl}cyclohexanecarbonitrile]
IC50 (JAK2): 1.6 nM | IC50 (JAK1): 0.39 nM

N#C[C@H]1CCCC[C@@H]1n1nc(Nc2ccc(F)c(CN)c2)c2c(=O)[nH]ccc21 [Example 6-2, (1S,2S)-2-(3-((3-(aminomethyl)-4-fluorophenyl)amino)-4-oxo-4,5-dihydro-1H-pyrazolo[4,3-c]pyridin-1-yl)cyclohexanecarbonitrile]
IC50 (JAK2): 2.3 nM | IC50 (JAK1): 0.75 nM

COCCNS(=O)(=O)c1ccc(Nc2nn([C@H]3CCCC[C@@H]3C#N)c3cc[nH]c(=O)c23)cc1 [Example 3-21, 4-({1-[(1S,2S)-2-cyanocyclohexyl]-4-oxo-4,5-dihydro-1H-pyrazolo[4,3-c]pyridin-3-yl}amino)-N-(2-methoxyethyl)benzenesulfon-amide]
IC50 (JAK2): 0.79 nM | IC50 (JAK1): 0.17 nM

CC(C)(C)OC(=O)[C@H]1CC[C@@H](N2Cc3cc(Nc4nn([C@H]5CCCC[C@@H]5C#N)c5cc[nH]c(=O)c45)ccc3S2(=O)=O)CC1 [Example 15-43, (1S,4S)-tert-butyl 4-(5-((1-((1S,2S)-2-cyanocyclohexyl)-4-oxo-4,5-dihydro-1H-pyrazolo[4,3-c]pyridin-3-yl)amino)-1,1-dioxidobenzo[d]isothiazol-2(3H)-yl)cyclohexanecarboxylate]
IC50 (JAK2): 1.2 nM | IC50 (JAK1): 0.22 nM

CN(C(C)(C)C)S(=O)(=O)c1ccc(Nc2nn([C@@H]3CCCCC[C@H]3C#N)c3cc[nH]c(=O)c23)cc1 (single isomer, unassigned) [Example 15-51, N-tert-butyl-4-({1-[(1R,2R or 1S,2S)-2-cyanocycloheptyl]-4-oxo-4,5-dihydro-1H-pyrazolo[4,3-c]pyridin-3-yl}amino)-N-methylbenzenesulfonamide]
IC50 (JAK2): 0.37 nM | IC50 (JAK1): 0.23 nM

N#C[C@H]1CCCC[C@@H]1n1nc(Nc2cccc(Cn3cccn3)c2)c2c(=O)[nH]ccc21 [Example 3-43, (1S,2S)-2-(4-oxo-3-{[3-(1H-pyrazol-1-ylmethyl)phenyl]amino}-4,5-dihydro-1H-pyrazolo[4,3-c]pyridin-1-yl)cyclohexanecarbonitrile]
IC50 (JAK2): 1.7 nM | IC50 (JAK1): 1.4 nM
